Earlier results on 6 compounds are cited in patent US12107222B2, “Liquid electrolyte comprising organic carbonates and cyclic sulfoxides for applications in lithium secondary batteries” (Forschungszentrum Juelich GmbH, priority 2018, dated 2024).

Data set [1] relates to rat.
Data set [2] has as its system rat. This is another data set of the same source.
In another data set the test system is human organism. To be noted: classification in words.
The test system of data set [3] is rat. To be noted: in vivo.

For the compound `O=C1OCCO1` [Ethylene carbonate], the “LD50, rat, dermal” value in the data set with rat [1] is “LD50, rat, dermal: >2,000 mg/kg”. In the data set on rat [2], the “LC50, rat, inhalative, 7 h” value was “LC50, rat, inhalative, 7 h: >1.268 mg/L^[12]”.
Turning to `[O-][S+]1CCCC1` [Tetrahydrothiophene-1-oxide], the “LD50, mouse, intraperitoneal” value in the data set on mouse is “LD50, mouse, intraperitoneal: 3,500”.
On to `O=S1(=O)CCCO1` [1,3-propane sultone], for which the hazard classification result in the data set on human organism is “carcinogenic and toxic”.
Regarding `CCC1COC(=O)O1` (stereo not drawn) [1,2-Butylene carbonate], the “LD50, rat, oral” value in the data set on rat [3] is recorded as “LD50, rat, oral: >5,000 mg/kg”. In addition, the “LD50, rabbit, dermal” value in the data set on rabbit is “LD50, rabbit, dermal: >2,000 mg/kg^[13]”.
`O=c1occo1` [Vinylene carbonate]: the hazard classification entry in the data set on human organism is listed as “toxic on contact with the skin”.
On to `CC1COC(=O)O1` (stereo not drawn) [Propylene carbonate], for which the “LD50, rat, oral” value in the data set with rat [3] is reported as “LD50, rat, oral: >5,000 mg/kg”. The “LD50, rabbit, dermal” value in the data set with rabbit is “LD50, rabbit, dermal: >2,000 mg/kg^[2]”.
